# Source: ChEMBL document CHEMBL1201862, “PubChem BioAssay data set” (2004)
# Activity calls are given as the source filed them. Rule as the data show it, for most assays here: actives have a measured EC50 and inactives only a lower limit.
# What was measured:
# [1] = system: Vero; test: host cell viability loss, Vero E6 – synthesized analogs, cytotoxicity control for West Nile virus antiviral project, SAR follow-up (AID 2244); type: functional; conditions: Chlorocebus sabaeus
# [2] = luciferase reporter signal suppression in cells – H4 neuroglioma cells, luminescence, dose response (AID 1990); type: functional, cell-based
# [3] = system: BJ; test: BJ-TERT fibroblast viability loss – cell-based, RAS-independent, luminescence, dose response (AID 1933); type: functional; conditions: Homo sapiens
# [4] = Luminescence Cell-Based Dose Response HTS to Identify Inhibitors of 5'UTR Stem-Loop Driven Prion Protein mRNA Translation in H4 Neuroglioblastoma Cells. [Related pubchem assays: 1827 (Project Summary), 1813 (Primary HTS)]; type: functional
# [5] = alpha-synuclein stem-loop luciferase translation blockers – H4 neuroglioma cells, luminescence, confirmation (AID 1988); type: functional, cell-based
# [6] = target: T1, Alkaline phosphatase, tissue-nonspecific isozyme (Homo sapiens, UniProt P05186)
# T1 sequence (P05186 whole entry): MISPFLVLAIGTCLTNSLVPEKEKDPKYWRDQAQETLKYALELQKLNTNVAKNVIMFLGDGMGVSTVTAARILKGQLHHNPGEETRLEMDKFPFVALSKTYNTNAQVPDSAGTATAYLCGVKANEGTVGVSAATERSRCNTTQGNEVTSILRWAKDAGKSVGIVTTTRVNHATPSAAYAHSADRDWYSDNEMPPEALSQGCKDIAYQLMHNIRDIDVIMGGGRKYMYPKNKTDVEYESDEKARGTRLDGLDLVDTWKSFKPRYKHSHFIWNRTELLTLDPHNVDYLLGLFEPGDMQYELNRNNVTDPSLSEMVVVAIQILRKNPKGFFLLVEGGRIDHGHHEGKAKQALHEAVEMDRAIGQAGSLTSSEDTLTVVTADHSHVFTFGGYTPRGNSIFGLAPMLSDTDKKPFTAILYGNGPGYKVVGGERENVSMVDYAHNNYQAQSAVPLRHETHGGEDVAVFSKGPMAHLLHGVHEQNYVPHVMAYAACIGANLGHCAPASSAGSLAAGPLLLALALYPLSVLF
# [7] = system: BJ; test: cells; type: functional, cell-based; conditions: Homo sapiens
# [8] = system: BJ; test: BJ-TERT-LT-ST fibroblast viability loss – cell-based, RAS-independent, luminescence, dose response (AID 1935); type: functional; conditions: Homo sapiens;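 also: BJ fibroblasts immortalized with TERT plus LT and ST oncogenes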
# [9] = DRD fibroblast viability loss – cell-based, non-viral oncogenic, luminescence, dose response (AID 1934); type: functional; conditions: Homo sapiens
# [10] = luciferase reporter signal reduction – luminescence, H4-C neuroglioblastoma cells, dose response (AID 2458); type: functional, cell-based;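 also: H4 neuroglioblastoma cells stably carrying a luciferase reporter gene fusion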
# [11] = cells; type: functional, cell-based
# [12] = Luminescence-based dose response cell-based high throughput screening assay for cytotoxic compounds using the IEC-6 intestinal epithelial cell line. [Related pubchem assays: 1858 (Summary AID.), 1825 (Counterscreen.), 1907 (Confirmation screen.)]; type: functional
# [13] = alpha-synuclein stem-loop translation blockers – luminescence, H4 neuroglioblastoma cells, dose confirmation, confirmation (AID 2454); type: functional, cell-based;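 also: H4 neuroglioblastoma cells carrying an alpha-synuclein 5'UTR luciferase reporter; potency for inhibition of the luciferase signal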
# [14] = system: BJ; test: growth inhibition of engineered Ras-driven BJ cells – cell-based, alamar blue fluorescence, cherrypicked samples, dose response (AID 2631); type: functional; conditions: Homo sapiens;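 also: confirmatory dose-response assay in RAS-dependent BJ fibroblasts engineered with TERT, LT and ST, with cytotoxicity read by fluorescence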
# [15] = target: Luciferin 4-monooxygenase (Photinus pyralis, UniProt P08659); test: Counter Screen for Luciferase-based Assay Positives. [Related pubchem assays: 620, 618, 411 ]
# [16] = system: HT-1080; test: HT1080 cell viability loss – fluorescence readout (AID 620); type: functional, cell-based; conditions: Homo sapiens
# [17] = system: HEK293; test: EBV LMP1 TES2 canonical NF-kB signalling blockers – cell-based, HEK293, luciferase, cherry-pick, dose response (AID 588343); type: functional; conditions: Homo sapiens
# [18] = A549 cell cytotoxicity, dose response, cytotoxicity control, plate reader, cherry-pick, antagonist series (AID 743412); type: functional, cell-based
# [19] = toxicity toward HepG2 liver cells – cell-based, plate reader, cherry-pick, antagonist series, cytotoxicity control, dose response (AID 743416); type: functional
# [20] = blockers of bursicon-stimulated LGR2 cAMP reporter – cell-based, HEK293, CRE-luciferase reporter, cherry pick, set 2, dose response (AID 743343); type: functional;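 also: transfected cells were stimulated with diluted bursicon conditioned medium after compound addition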
# [21] = blockade of melanocortin 4 receptor signaling – cell-based, plate reader, cherry pick, counter-screen for LGR2 antagonist project, dose response (AID 743444); type: functional;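 also: transfected HEK 293 cells stimulated with alpha-MSH peptide; potency of inhibitors of the alpha-MSH evoked signal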
# [22] = viability loss in HEK293 cells – cell-based, plate reader, cherry-picked samples, cytotoxicity control, dose response (AID 743446); type: functional
# 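For IC50 in this document: cell viability measured after two days of compound exposure.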
# Chain of Luciferin 4-monooxygenase (P08659 whole entry): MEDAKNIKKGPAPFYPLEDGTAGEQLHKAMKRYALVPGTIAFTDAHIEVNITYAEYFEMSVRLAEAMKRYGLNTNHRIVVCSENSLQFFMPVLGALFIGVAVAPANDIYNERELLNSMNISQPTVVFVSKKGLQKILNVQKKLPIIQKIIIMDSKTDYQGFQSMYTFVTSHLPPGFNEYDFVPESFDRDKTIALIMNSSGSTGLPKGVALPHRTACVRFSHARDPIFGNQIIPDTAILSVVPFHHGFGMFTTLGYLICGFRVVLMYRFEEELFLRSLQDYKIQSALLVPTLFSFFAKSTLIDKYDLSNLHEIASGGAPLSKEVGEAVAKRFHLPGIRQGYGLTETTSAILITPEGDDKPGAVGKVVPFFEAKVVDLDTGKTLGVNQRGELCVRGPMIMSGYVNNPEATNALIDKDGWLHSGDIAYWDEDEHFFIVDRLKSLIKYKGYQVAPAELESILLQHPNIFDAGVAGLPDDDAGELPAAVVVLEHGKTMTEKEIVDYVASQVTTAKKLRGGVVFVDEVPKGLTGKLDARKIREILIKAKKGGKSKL
smiles,measurement,setting,value
O=C(Nc1nc(-c2ccc(Cl)cc2)cs1)c1ccccc1Cl,CC50,[1],> 40 µM (active)
COc1cccc2sc(Nc3nc4ccc(NC(C)=O)cc4s3)nc12,EC50,[2],> 120 µM (not active)
same,EC50,[3],67.8 µM (active)
same,EC50,[4],12.6 µM (active)
same,EC50,[5],10.7 µM (active)
same,EC50,[6],> 100 µM (not active)
same,EC50,[7],28.2 µM (active)
same,EC50,[8],> 150 µM (not active)
same,EC50,[9],30 µM (active)
Cc1cccc2cc(C#N)c(SCC(=O)N3CC(=O)Nc4ccccc43)nc12,EC50,[10],1.59 µM (active)
same,EC50,[3],0.583 µM (inconclusive)
same,EC50,[11],2.36 µM (active)
same,EC50,[5],< 0.1 µM (active)
same,EC50,[7],18 µM (active)
same,IC50,[12],580 nM (active)
same,EC50,[8],0.46 µM (active)
same,EC50,[9],0.804 µM (active)
same,EC50,[13],1.42 µM (active)
same,EC50,[14],< 104 nM (active)
O=C(Nc1ccc(CN2CCOCC2)cc1)c1cc2ccccn2n1,EC50,[15],71.5 µM (active)
same,EC50,[16],> 50 µM (not active)
same,AC50,[17],3.01 µM (active)
same,AC50,[18],> 52 µM (inactive)
same,AC50,[19],> 52 µM (inactive)
same,AC50,[20],2.6 µM (active)
same,AC50,[21],5.82 µM (active)
same,AC50,[22],36 µM (active)
